Results on 3 molecules are retold here after paper PMC10147690, “Human TRPV1 structure and inhibition by the analgesic SB-366791” (Nature Communications, 2023).

Several values for one entry are separate records, joined by “and”; a condition that tells them apart may be missing. Equal entries are not always repeated. Where two headings read alike, the source gives them in different places.

The subject of series [1] is acute pain. The following applies: co-administered with a calcium channel blocker; mice; cited from earlier work.
The target in series [2] is T1, hTRPV1 R557A (Homo sapiens, UniProt Q8NER1, R557A).
T1 construct: expressed in transfected cells; host or cells: HEK293 cells
Kind of series: whole-cell patch-clamp, SB-366791 on pH-induced current, R557A. It is filed as cell-based. The conditions noted are these: pH 5.

Series [3] concerns the target T2, hTRPV1 T550A (Homo sapiens, UniProt Q8NER1, T550A).
T2 construct: we used the same wild-type full-length construct to determine the hTRPV1 structure; expressed in transfected cells; host or cells: HEK293T ΔPIEZO1 cells, pIRES-EGFP plasmid
Kind of series: whole-cell patch-clamp, SB-366791 inhibition of pH 5-induced current, T550A. The series is classed as cell-based.

Series [4] addresses T3, hTRPV1 (Homo sapiens, UniProt Q8NER1). Kind of series: whole-cell patch-clamp at -40 mV, SB-366791 inhibition of capsaicin-activated hTRPV1 current and recovery. It is filed as cell-based. Further details: we used the same wild-type full-length construct to determine the hTRPV1 structure; expressed in transfected cells; host or cells: HEK293T ΔPIEZO1 cells, pIRES-EGFP plasmid; I (Cap), hTRPV1 peak current amplitude / I (SB), hTRPV1 peak current amplitude: unit not given here.

Series [5] addresses T3, hTRPV1. Kind of series: whole-cell patch-clamp, SB-366791 inhibition of pH 5-induced current, wild-type hTRPV1. It is filed as cell-based. Further details: we used the same wild-type full-length construct to determine the hTRPV1 structure; expressed in transfected cells; host or cells: HEK293T ΔPIEZO1 cells, pIRES-EGFP plasmid.
The target of series [6] is T4, hTRPV1 Y511A (Homo sapiens, UniProt Q8NER1, Y511A).
T4 construct: expressed in transfected cells; host or cells: HEK293T ΔPIEZO1 cells, pIRES-EGFP plasmid
Kind of series: whole-cell patch-clamp, SB-366791 inhibition of pH 5-induced current, Y511A. It is filed as cell-based. The conditions noted are these: for I / Imax: individual cells.

The target of series [7] is T5, hTRPV1 L547R (Homo sapiens, UniProt Q8NER1, L547R).
T5 construct: we used the same wild-type full-length construct to determine the hTRPV1 structure; expressed in transfected cells; host or cells: HEK293T ΔPIEZO1 cells, pIRES-EGFP plasmid
Kind of series: whole-cell patch-clamp, SB-366791 inhibition of pH 5-induced current, L547R. It is filed as cell-based.

Series [8] has as its system bone cancer pain. The following applies: cited from earlier work.
Series [9] concerns panel of 47 different targets, including G-protein-coupled receptors and voltage-gated calcium-channels. The conditions noted are these: cited from earlier work.
Series [10] addresses T6, hTRPV1 E570A (Homo sapiens, UniProt Q8NER1, E570A).
T6 construct: expressed in transfected cells; host or cells: HEK293 cells
Kind of series: whole-cell patch-clamp, SB-366791 on pH-induced current, E570A. It is filed as cell-based. The conditions noted are these: pH 5.

Series [11] concerns opiate-mediated behaviors. Further details: method as in PMID 27730727. The conditions noted are these: rat studies; cited from earlier work.
The target in series [12] is T3, hTRPV1. The following applies: no apparent change in the maximal response; cited from earlier work.
Series [13] deals with T7, hTRPV1 E693A (Homo sapiens, UniProt Q8NER1, E693A).
T7 construct: we used the same wild-type full-length construct to determine the hTRPV1 structure; expressed in transfected cells; host or cells: HEK293T ΔPIEZO1 cells, pIRES-EGFP plasmid
Kind of series: whole-cell patch-clamp, SB-366791 inhibition of pH 5-induced current, E693A. The series is classed as cell-based. The following applies: for I / Imax: individual cells.

The target of series [14] is T8, hTRPV1 L515A (Homo sapiens, UniProt Q8NER1, L515A).
T8 construct: we used the same wild-type full-length construct to determine the hTRPV1 structure; expressed in transfected cells; host or cells: HEK293T ΔPIEZO1 cells, pIRES-EGFP plasmid
Kind of series: whole-cell patch-clamp, SB-366791 inhibition of pH 5-induced current, L515A. The series is classed as cell-based. The following applies: for I / Imax: +80 mV, individual cells.

Series [15] deals with glutamatergic transmission in a subset of neurons. The following applies: pre-synaptic TRPV1-dependent mechanism following peripheral inflammation; cited from earlier work.
Series [16] deals with T1, hTRPV1 R557A. Kind of series: whole-cell patch-clamp, capsaicin on hTRPV1 R557A. The series is classed as cell-based. The following applies: 10 μM capsaicin.
Series [17] concerns squirrel TRPV1. Further details: method as in PMID 27638213. The conditions noted are these: cited from earlier work.
For series [18], the target named is T4, hTRPV1 Y511A. Kind of series: whole-cell patch-clamp, capsaicin on hTRPV1 Y511A. The series is classed as cell-based. The conditions noted are these: not shown.
Series [19] deals with T6, hTRPV1 E570A. Kind of series: whole-cell patch-clamp, capsaicin on hTRPV1 E570A. The following applies: 10 μM capsaicin. It is filed as cell-based.
Series [20] concerns mouse TRPV1. Further details: method as in PMID 27638213. The conditions noted are these: cited from earlier work.
Series [21] has as its system rat TRPV1. Details: method as in PMID 27638213. The conditions noted are these: cited from earlier work.
For series [22], the system named is rat TRPV1 Y511A. The following applies: cited from earlier work.
Series [23] concerns the molecule itself. Kind of series: cryo-EM structure; apo hTRPV1 in cNW11 nanodiscs with soybean lipids or POPC:POPE:POPG (3:1:1); 150 mM NaCl, 20 mM Tris pH 8.0, 1 mM bME.

`COc1cccc(NC(=O)/C=C/c2ccc(Cl)cc2)c1` [SB-366791, N-(3-methoxyphenyl)−4-chlorocinnamide]: in series [1], the “synergistic increase of antinociceptive effect” value is 15 fold. Moreover, the “inhibition of current induced by changes in pH” value in series [2] and in [10] was “did not induce any inhibition” each time. Besides, the “sensitivity to inhibition by the blocker” value in series [3], in series [7] and in series [14] was “completely insensitive” throughout. For the same molecule, the “inhibition of capsaicin-activated hTRPV1” value in series [4] (10 µM SB-366791 co-applied with 1 µM capsaicin, -40 mV) was “complete inhibition”. For the same molecule, the “I (SB), hTRPV1 peak current amplitude” value in series [4] (Fig 2b, 10 µM SB-366791 in the presence of 1 µM capsaicin, 10 s after SB-366791 application, individual cells, listed as SB) is 0.010 and 0.020 and 0.060 and 0.011. The IC50 is 5.41 nM and 45 nM and 38 nM and 6.46 nM and 26 nM and 13 nM and 15 nM in series [5] (WT, pH 5, Hill fits of individual cells, read-out: SB-366791 IC50); 21 nM in series [5] (WT, response to reviewers, read-out: inhibition by SB-366791, IC50); 21 ± 6 nM in series [5] (wild-type, pH 5, +80 mV, mean ± SEM, n = 7, read-out: IC50 of SB-366791); 253 ± 75 nM in series [6] (+80 mV, mean ± SEM, n = 7); 100 ± 11 nM in [13] (pH 5, +80 mV, mean ± SEM, n = 6, read-out: IC50 of SB-366791); 121 nM and 70 nM and 137 nM and 75 nM and 92 nM and 103 nM in series [13] (pH 5, Hill fits of individual cells, read-out: SB-366791 IC50). Besides, the IC50 in series [13] (response to reviewers, read-out: inhibition by SB-366791, IC50) came out at 100 nM. Besides, the SB-366791-resistant fraction in series [5] (WT, pH 5, individual cells) was 0.177 and 0.291 and 0.285 and 0.295 and 0.181 and 0.106 and 0.205; in [13] (pH 5, individual cells) it was 0.417 and 0.362 and 0.602 and 0.396 and 0.427 and 0.420. The “proportion of blocker-resistant current” value in [5] (wild-type, pH 5, mean ± SEM, n = 7) is 0.220 ± 0.027 and 0.22 ± 0.03; in series [6] (mean ± SEM, n = 7) it was 0.490 ± 0.070. Besides, the “I / Imax” value in series [6] (SB-366791 0.0001 μM, +80 mV) is 0.951 and 0.974 and 0.889 and 1.022; in series [6] (SB-366791 0.001 μM, +80 mV), 0.916 and 0.924 and 0.887 and 0.985; in series [6] (SB-366791 0.01 μM, +80 mV) it was 0.893 and 0.810 and 0.838 and 0.939; in [6] (SB-366791 0.1 μM, +80 mV), 0.831 (2×) and 0.718 (2×); in series [6] (SB-366791 1 μM, +80 mV) it was 0.638 and 0.474 and 0.443 and 0.511; in [6] (SB-366791 10 μM, +80 mV) it was 0.537 and 0.399 and 0.380 and 0.562. Besides, the “I / Imax” value in [13] (SB-366791 0.0001 μM, pH 5, +80 mV) is 0.860 (2×) and 0.830 and 0.980 and 0.850 and 0.890; in series [13] (SB-366791 0.01 μM, pH 5, +80 mV) it was 0.820 and 0.780 and 0.880 and 0.830; in series [14] (SB-366791 0.0001 μM), 1.151 and 1.003 and 0.775 and 1.067; in [14] (SB-366791 0.001 μM) it was 0.856 and 0.881 and 0.592 and 0.984; in series [14] (SB-366791 0.01 μM), 0.762 and 0.808 and 0.507 and 0.880; in series [14] (SB-366791 0.1 μM) it was 0.817 and 0.939 and 0.604 and 0.943. Further, the “I / Imax” value was 0.888 and 1.233 and 0.959 and 1.206 in series [14] (SB-366791 1 μM); 0.734 and 1.125 and 1.046 and 1.211 in series [14] (SB-366791 10 μM). The “effect on analgesia by systemic morphine” value in series [8] was “effectively potentiate the analgesic effects of systemic morphine”. Further, the “effect on a panel of 47 different targets” value in [9] was “little or no effect”. Besides, in series [11], the “effect on opiate-mediated behaviors” value is given as “impair opiate-mediated behaviors”. The “effect on capsaicin concentration dependence of hTRPV1-mediated calcium uptake” value in series [12] is listed as “rightward shift”. The “fraction of blocker-insensitive current” value in [13] (pH 5, mean ± SEM, n = 6) is 0.440 ± 0.034. Further, the “effect on glutamatergic transmission” value in series [15] is “inhibiting glutamatergic transmission”.
In the case of `COc1cc(CNC(=O)CCCC/C=C/C(C)C)ccc1O` [capsaicin], the “currents induced by capsaicin” value in series [16] and in series [19] was “did not induce any currents” each time. For the same molecule, the “I (Cap), hTRPV1 peak current amplitude” value in [4] (Fig 2b, 1 µM capsaicin, -40 mV, individual cells, listed as Cap) was 0.380 and 0.430 and 4.800 and 2.000 and 1.600. Moreover, the EC50 was 529 ± 32 nM in [17], 776 ± 52 nM in [20] and 527 ± 53 nM in series [21]. Also, the sensitivity to capsaicin result in [18] and in series [22] was “insensitive” throughout.

B1: human TRPV1 (natural protein, UniProt Q8NER1 1-839, looked up)
chain: MKKWSSTDLGAAADPLQKDTCPDPLDGDPNSRPPPAKPQLSTAKSRTRLFGKGDSEEAFPVDCPHEEGELDSCPTITVSPVITIQRPGDGPTGARLLSQDSVAASTEKTLRLYDRRSIFEAVAQNNCQDLESLLLFLQKSKKHLTDNEFKDPETGKTCLLKAMLNLHDGQNTTIPLLLEIARQTDSLKELVNASYTDSYYKGQTALHIAIERRNMALVTLLVENGADVQAAAHGDFFKKTKGRPGFYFGELPLSLAACTNQLGIVKFLLQNSWQTADISARDSVGNTVLHALVEVADNTADNTKFVTSMYNEILMLGAKLHPTLKLEELTNKKGMTPLALAAGTGKIGVLAYILQREIQEPECRHLSRKFTEWAYGPVHSSLYDLSCIDTCEKNSVLEVIAYSSSETPNRHDMLLVEPLNRLLQDKWDRFVKRIFYFNFLVYCLYMIIFTMAAYYRPVDGLPPFKMEKTGDYFRVTGEILSVLGGVYFFFRGIQYFLQRRPSMKTLFVDSYSEMLFFLQSLFMLATVVLYFSHLKEYVASMVFSLALGWTNMLYYTRGFQQMGIYAVMIEKMILRDLCRFMFVYIVFLFGFSTAVVTLIEDGKNDSLPSESTSHRWRGPACRPPDSSYNSLYSTCLELFKFTIGMGDLEFTENYDFKAVFIILLLAYVILTYILLLNMLIALMGETVNKIAQESKNIWKLQRAITILDTEKSFLKCMRKAFRSGKLLQVGYTPDGKDDYRWCFRVDEVNWTTWNTNVGIINEDPGNCEGVKRTLSFSLRSSRVSGRHWKNFALVPLLREASARDRQSAQPEEVYLRQFSGSLKPEDAEVFKSPAASGEK
notes: human TRPV1, wild-type full-length construct; residues 1-839 by the printed numbers (models hold 115-769 or 199-754); the tags of the construct are not described; Homotetramer; Apo samples in cNW11 nanodiscs, the SB-366791 sample in GDN detergent; also called hTRPV1; hTRPV1Apo; source: HEK 293S GnTI- cells transduced with baculovirus, purified (strep resin, SEC)
For the molecule B1, the “stoichiometry N” value in series [23] is 4.
